Measurements: US20250129334A1, “LINEAGE SPECIFICATION DURING STEM CELL TRANSITION” (Amniotics AB, priority 2021, published 2025)

Columns and labels:
[1] = test system: HE cells; experiment: Single HE cell clone assay on OP9-DL1 stroma; format: cell-based, human; conditions: day 14; total of 552 single cells per condition
Experimental: Sorted HE (40,000), EHT (30,000) and HSC-like (5-20,000) cells were plated onto Matrigel (16 μg/cm2, Corning)-coated 96-well flat bottom plates in HE medium with 1% penicillin-streptomycin and kept in a humidified incubator at 37° C., 5% C02, 4% 02 overnight. The following day (day 0), wells were washed twice with PBS and fresh HE medium was added, together with 2-DG (1 mM), UK5099 (10 μM), DCA (3 mM or 10 mM), TSA (60 nM), TCP (300 nM), ACSS2i (5 μM), C646 (10 μM), CP-640186 (5 μM) or Atorvastatin (0.5 μM), where indicated. Media was changed and drugs were added every 2 days and cells were kept in a humidified incubator at 37° C., 5% CO2, 20% O2 for 6-7 days. Pictures were taken using an Olympus IX70 microscope equipped with a CellSens DP72 camera and CellSens Standard 1.6 software (Olympus). For single cell subcultures, single HE cells were directly sorted with a BD FACSAriaIII onto OP9-DL1 stroma in flat-bottom 96-well plates with 120 μl OP9 medium (OptiMEM medium with Glutamax (Invitrogen) with 10% FCS, 1% penicillin-streptomycin solution (Thermo Fisher Scientific) and 1% 2-mercaptoethanol (Invitrogen)) with SCF, IL-6, IL-11, IGF1 and EPO, and with or without 10 μM UK, or 3 mM or 10 mM DCA. […] At day 14, the wells were collected and scored for GPA+ clones by flow cytometry, using a BD LSRII.

[2] = test system: HE cells; experiment: HE subculture with metabolic regulators, flow cytometry of hematopoietic output; format: cell-based, human
Excerpt: The RB9-CB1 human iPSC line (Woods, N.-B. et al. Brief report: efficient generation of hematopoietic precursors and progenitors from human pluripotent stem cell lines. Stem Cells 29, 1158-1164 (2011)) was co-cultured with mouse embryonic fibroblasts (MEFs, Millipore), passaged every six days and processed to form embryoid bodies (EBs) as described previously (Guibentif, C. et al. Single-Cell Analysis Identifies Distinct Stages of Human Endothelial to-Hematopoietic Transition. Cell Reports 19, 10-19 (2017)). The differentiation protocol used in this study was previously described (Ditadi, A. & Sturgeon, C. M. Directed differentiation of definitive hemogenic endothelium and hematopoietic progenitors from human pluripotent stem cells. Methods 101, 65-72 (2016)), however, small modifications were made to induce both primitive and definitive hematopoiesis, as indicated below and in FIG. 6, a. Newly-formed EBs were first kept in SFD medium supplemented with 1 ng/ml Activin A (on days 0-2) and 3 μM CHIR99021 (on day 2 only). At day 3, media was switched to “Day 3-SP34” medium supplemented with 1 ng/ml Activin A (on day 3 only) and 3 μM CHIR99021 (on day 3 only) until day 6. On day 6, media was replaced by “Day 6-SP34” medium, until day 8. In some experiments where indicated, to obtain a higher yield of HSC-like cells, EBs were kept until day 10: in this case, EBs were plated onto Matrigel (8 μg/cm2, Corning)-coated dishes on day 8 and kept until day 10. Media was changed every day, except on days 5 and 7. On day 8 or 10 (as indicated), EBs were singularized with 5-6 rounds of 5-minute incubations with TryPLE Express (Thermo Fisher Scientific). CD34^+ cells were selected using the human CD34 MicroBead kit (Miltenyi Biotec) and stained with CD34-FITC, CD73-PE, VECad-PerCPCy5.5, CD38-PC7, CD184-APC, CD45-AF700, CD43-APCH7, GPA-eF450, CD90-BV605 and the viability marker 7AAD in order to sort HE (CD34^+CD43^−CXCR4^−CD73^−CD90^+VECad^+), EHT (CD34^+CD43^intCXCR4^−CD73^−CD90^+VECad^+) and HSC-like (CD34^+CD43^+CD90^+CD38^−) cells, according to previously described markers (Guibentif, C. et al. Single-Cell Analysis Identifies Distinct Stages of Human Endothelial to-Hematopoietic Transition. Cell Reports 19, 10-19 (2017); Ditadi, A. et al. Human definitive haemogenic endothelium and arterial vascular endothelium represent distinct lineages. Nat Cell Biol 17, 580-591 (2015); and Choi, K.-D. et al. Identification of the Hemogenic Endothelial Progenitor and Its Direct Precursor in Human Pluripotent Stem Cell Differentiation Cultures. Cell Reports 2, 553-567 (2012)).
Sorted HE (40,000), EHT (30,000) and HSC-like (5-20,000) cells were plated onto Matrigel (16 μg/cm2, Corning)-coated 96-well flat bottom plates in HE medium with 1% penicillin-streptomycin and kept in a humidified incubator at 37° C., 5% C02, 4% 02 overnight. The following day (day 0), wells were washed twice with PBS and fresh HE medium was added, together with 2-DG (1 mM), UK5099 (10 μM), DCA (3 mM or 10 mM), TSA (60 nM), TCP (300 nM), ACSS2i (5 μM), C646 (10 μM), CP-640186 (5 μM) or Atorvastatin (0.5 μM), where indicated. Media was changed and drugs were added every 2 days and cells were kept in a humidified incubator at 37° C., 5% CO2, 20% O2 for 6-7 days. Pictures were taken using an Olympus IX70 microscope equipped with a CellSens DP72 camera and CellSens Standard 1.6 software (Olympus). For single cell subcultures, single HE cells were directly sorted with a BD FACSAriaIII onto OP9-DL1 stroma in flat-bottom 96-well plates with 120 μl OP9 medium (OptiMEM medium with Glutamax (Invitrogen) with 10% FCS, 1% penicillin-streptomycin solution (Thermo Fisher Scientific) and 1% 2-mercaptoethanol (Invitrogen)) with SCF, IL-6, IL-11, IGF1 and EPO, and with or without 10 μM UK, or 3 mM or 10 mM DCA. The cells were kept in a humidified incubator at 37° C., 5% CO2, 4% O2 and media was replaced every 4 days. […]

Compound: O=C(O)C(Cl)Cl [DCA, dichloroacetate]
- GPA+ clones [1]: 7 clones
- decrease in CD43+GPA+ cells ([2]; day 6 of HE subculture, DCA 3 mM): 50%
- increase in CD43+CD45+ cells / cell output ([2]; day 6 of subculture, deriving from HE, DCA 3 mM or shRNA): 80%

Compound: N#CC(=Cc1cn(-c2ccccc2)c2ccccc12)C(=O)O [UK5099, 2-Cyano-3-(1-phenyl-1H-indol-3-yl)-2-propenoic acid]
- GPA+ clones [1]: 12 clones
- EdU incorporation (proliferation) ([2]; 24 h pulse, days 1 and 2 of subculture, UK5099 10 μM, DCA 3 mM): no differences in proliferation
- frequency of HSC-like cells deriving from HE ([2]; 3 days subculture, UK5099 10 μM, DCA 3 mM): did not have an effect
- proliferation of CD45+ cells deriving from HE ([2]; CTV, UK5099 10 μM, DCA 3 mM): did not have an effect
- proliferation of the GPA+ population deriving from HE ([2]; CTV, day 3, UK5099 10 μM, DCA 3 mM): did not observe any differences
- CD43+GPA+ cell output ([2]; day 3 of HE subculture, UK5099 10 μM, 1-AA 4 mM, DCA 3 mM, vs control): striking increase
- levels of total CD43+ cells ([2]; day 6, UK5099 10 μM, 1-AA 4 mM): unchanged
- decrease in CD43+CD45+ population ([2]; day 6, deriving from HE, UK5099 10 μM): 2 fold
